Earlier results as cited in patent US20050095265A1, “Process for making larvicidal evaporation suppressant powder” (priority 2002, published 2005).

effect on larvae of feeding on particles floating on the water surface (Culex quinquefasciatus; particles on water surface of test units, apparently fed upon by mosquito larvae) | SMILES | larvicidal effect (Culex quinquefasciatus; film-forming compound on water surface, Culex quinquefasciatus larvae) | influence on aquatic larvae (Anopheles gambiae) | mosquito larvae mortality (Culex quinquefasciatus; as reported by Lorenzen and Meinke)
no ill effect | CCCCCCCCCCCCCCCCO [cetyl alcohol, n-hexadecanol] | no larvicidal effect | no appreciable influence | 
 | CCCCCCCCCCCCO [lauryl alcohol, dodecanol] |  |  | cause mosquito larvae mortality
